Measured values reported in patent US11553718B2, “Mic reduction with lithium ions” (priority 2014, dated 2023).
Several values for one entry are separate records, joined by “and”; a condition that tells them apart may be missing. Equal values may be shown once. Read-outs that look alike come from different tables or passages of the source.

Assays:
[1] = system: bacterial strain rOmyAK; assay: microbe, parasite or virus in culture; format: cell-based, Pseudomonas mendocina; details: for MIC: Thioalkalivibrio paradoxus, read-out: MIC active/aequeous, rOmyAK; for MIC ratio (MICwithout Li/MICLi): rOmyAK
Experimental: (§1) When not otherwise indicated, the quoted bacterial counts (values are in cfu/plate) in the Tables here below are determined after 2 days following plate-out and incubation at 30° C. The counting method was as follows. The aqueous preparations were stirred well with a cotton swap (e.g. Applimed SA, No. 1102245); the excess aqueous preparation was removed by dipping it gently to the side of the aqueous preparation container, leaving approximately 200 mg of aqueous preparation on the swap. […] TSA plates were then incubated for 48 h at 30° C. Colony forming units (cfu) were then counted and reported as cfu/plate. Counts from 100 to 999 cfu per plate are reported as ≥100 cfu/plate. Counts of 1000 cfu and above per plate are reported as ≥1000 cfu/plate. Yeast and moulds were counted as described for bacteria with the following exceptions, a) Sabouraud Dextrose Agar (SDA) containing Chloramphenicol (e.g. heipha Dr. Miller GmbH, No. 1460030020) were used instead of TSA, b) SDA plates were incubated at 25° for 5 days and c) cfu were counted and reported after 48 h and 5 days of incubation. Yeast and moulds counts from 20 to 99 cfu per plate are reported as […]. Yeast and moulds counts of 100 cfu and above per plate are reported as >100 cfu/plate.
(§2) For determining the MIC, the tested microorganism, i.e. the strain of bacteria and/or strain of yeast and/or strain of mould, were freshly grown until the end of the logarithmic growth phase according to the requirements of the individual species to a density of approximately 10^7-10^9 cells/ml.
(§3) For example, fresh bacteria cultures of the bacteria E. coli, e.g. E. coli ATCC 11229, and S. aureus, e.g. S. aureus strains DSMZ 346, were prepared by inoculation of 3 ml liquid growth media (tryptic soy broth, e.g. Fluka Cat. No. 22092) from a stock culture and incubation for 16 to 20 h at 30° C. with agitation at 150 rotations per minutes (rpm) leading to a cell density of approximately 2×10^8 cells/ml. Fresh cultures of resistant bacteria, adapted to the conditions in biocide containing CaCO3 slurries, were prepared by inoculation of 50 g 75 wt.-% solid content CaCO3 slurry from a stock culture and incubated for 14 to 28 days at 30° C. without agitation.
(§4) Lithium ions were added to the aqueous preparation (e.g. CaCO3 slurry) by the addition of a water soluble lithium salt. For example to 50 g CaCO3 slurry with a solid content of 75% (w/w) 1.177 ml of a 74 g/Li2CO3 suspension was added and mixed well leading to a lithium ion concentration of 172 mM or 1205 ppm in the water phase. As another example to 50 g CaCO3 slurry with a solid content of 75 wt.-% (w/w) 0.04 ml of a 292 g/L Li3Citrate (2M) solution was added and mixed well leading to a lithium ion concentration of 19 mM or 135 ppm in the water phase.
(§5) The biocide to be tested was added to the aqueous preparation (e.g. CaCO3 slurry with or without lithium ions) in increasing concentrations starting from 0 ppm (without biocide). The concentrations ranged from concentrations higher than recommended by the supplier, to very low amounts (as low as 1 ppm or lower). Of each biocide concentration a 3 ml sample of aqueous preparation was combined with 20 μl fresh bacterial culture.
(§6) All samples were incubated at 30° C. for 24 h. After incubation colony forming units (cfu) per plate (cfu/plate) were determined as described above under bacterial count.
(§7) The MIC for bacteria is defined as the lowest concentration of biocide in the presence or absence of lithium ion amongst all samples tested, where the bacterial concentration dropped below 100 cfu/plate. The MIC for yeast and mould is defined as the lowest concentration of biocide in the presence or absence of lithium ion amongst all samples tested, where the microbial concentration dropped below 20 cfu/plate.

[2] = system: rOPP strain; assay: MIC determination in CaCO3 slurry with or without lithium ions; format: cell-based, Pseudomonas mendocina; details: Li2CO3; for MIC: Ectopseudomonas mendocina, read-out: MIC active/aequeous, rOPP; for MIC ratio (MICwithout Li/MICLi): rOPP
Experimental: as §1, §2, §3, §4, §5, §6, §7

[3] = system: S. aureus strain DSMZ 346; assay: MIC determination / bacterial count in CaCO3 slurry with or without lithium ions; format: cell-based; details: for MIC: Staphylococcus aureus, DSMZ346, S. aureus, read-out: MIC active/aequeous; for bacterial count: S. aureus DSMZ 346; for antimicrobial effect of lithium ions provided alone: S. aureus strain
Experimental: as §1, §2, §3, §4, §5, §6, §7

[4] = system: E. coli strain ATCC11229; assay: as above; format: cell-based; details: for MIC ratio (MICwithout Li/MICLi): E. coli; for MIC: Escherichia coli; for bacterial count: E. coli ATCC11229
Experimental: as §1, §2, §3, §4, §5, §6, §7

[5] = system: S. aureus; assay: Curative MIC (bacteria added before biocide and lithium); format: cell-based; details: Curative treatment, Li^+ 329 mM (2305 ppm), Li2CO3
[6] = ATCC11229, read-out: MIC active/aequeous, E. coli, Li^+ 197 mM (1380 ppm), Li2CO3
[7] = ATCC11229, read-out: MIC active/aequeous, E. coli, no Li^+
[8] = S. aureus, Li^+ 423 mM (2964 ppm), Li2CO3
[9] = ATCC11229, read-out: MIC active/aequeous, E. coli, Li^+ 329 mM (2305 ppm), Li2CO3
[10] = S. aureus, Li^+ 197 mM (1380 ppm), Li2CO3
[11] = S. aureus, Li^+ 329 mM (2305 ppm), Li2CO3

OC1OCCOC1O (stereo not shown) [1,6-Dihydroxy-2,5-dioxane]
MIC ([1]; Li^+ 197 mM (1380 ppm), Li2CO3): 8700 µM and 1060 µg/mL | MIC ([1]; Li^+ 423 mM (2964 ppm), Li2CO3): 5800 µM and 708 µg/mL | MIC ([1]; no Li^+): 3100 µM and > 1590 µg/mL | MIC ratio (MICwithout Li/MICLi) ([1]; Li^+ 197 mM (1380 ppm), Li2CO3): >1.5 | MIC ratio (MICwithout Li/MICLi) ([1]; Li^+ 423 mM (2964 ppm), Li2CO3): >2.25

Oc1ccccc1-c1ccccc1 [2-Phenylphenol (OPP), 2-Phenylphenol]
MIC ([2]; Li^+ 172 mM (1205 ppm)): 260 µM and 45 µg/mL | MIC ([2]; Li^+ 197 mM (1380 ppm)): 2080 µM and 354 µg/mL | MIC ([2]; Li^+ 329 mM (2305 ppm)): 1040 µM and 177 µg/mL | MIC ratio (MICwithout Li/MICLi) ([2]; Li^+ 172 mM (1205 ppm)): 2 | MIC ratio (MICwithout Li/MICLi) ([2]; Li^+ 197 mM (1380 ppm)): >4.5 | MIC ratio (MICwithout Li/MICLi) ([2]; Li^+ 329 mM (2305 ppm)): >9 | MIC ratio (MICwithout Li/MICLi) ([3]; S. aureus, Li^+ 53 mM (370 ppm), Li2CO3): 2 | MIC ratio (MICwithout Li/MICLi) ([3]; S. aureus, Li^+ 67 mM (470 ppm), LiOH): 10 | MIC ([3]; Li^+ 53 mM (370 ppm), Li2CO3): 880 µM and 150 µg/mL | MIC ([3]; Li^+ 67 mM (470 ppm), LiOH): 180 µM and 30 µg/mL | MIC ([3]; no Li^+): 1760 µM and 300 µg/mL | MIC ratio (MICwithout Li/MICLi) ([4]; Li^+ 197 mM (1380 ppm), Li2CO3): 1.5 | MIC [4, 6]: 2080 µM and 354 µg/mL | MIC [4, 7]: 3120 µM and 531 µg/mL

CN1CSC(=S)N(C)C1 [3.5-Dimethyltetrahydro-1,3,5-thiadiazine-2-]
MIC ratio (MICwithout Li/MICLi) [3, 8]: >2.5 | MIC ([3]; Li^+ 423 mM (2964 ppm), Li2CO3): 440 µM and 70.8 µg/mL | MIC ([3]; no Li^+): > 1090 µM and > 177 µg/mL | MIC ratio (MICwithout Li/MICLi) ([4]; Li^+ 329 mM (2305 ppm), Li2CO3): 1.25 | MIC [4, 9]: 870 µM and 142 µg/mL | MIC [4, 7]: 1090 µM and 177 µg/mL

Cc1cc(O)ccc1Cl [4-Chloro-3-methylphenol]
MIC ratio (MICwithout Li/MICLi) [3, 8]: 1.5 | MIC ([3]; Li^+ 423 mM (2964 ppm), Li2CO3): 2480 µM and 354 µg/mL | MIC ([3]; no Li^+): 3720 µM and 531 µg/mL | bacterial count ([4]; 88.5 ppm 4-chloro-3-methylphenol, 197 mM Li^+): ≥100 cfu/plate | bacterial count ([4]; 88.5 ppm 4-chloro-3-methylphenol, no Li^+): ≥1000 cfu/plate | MIC ratio (MICwithout Li/MICLi) ([4]; Li^+ 197 mM (1380 ppm), Li2CO3): 2 | MIC ratio (MICwithout Li/MICLi) ([4]; Li^+ 329 mM (2305 ppm), Li2CO3): 4 | MIC [4, 6]: 177 µg/mL and 1240 µM | MIC [4, 9]: 620 µM and 88.5 µg/mL | MIC [4, 7]: 354 µg/mL and 2480 µM

O=c1[nH]sc2ccccc12 [Benzisothiazolinone (BIT), Benzisothiazolinone]
MIC ratio (MICwithout Li/MICLi) [3, 8]: >2 | MIC ratio (MICwithout Li/MICLi) [5]: 2

O=[N+]([O-])C(Br)(CO)CO [Bronopol]
MIC ratio (MICwithout Li/MICLi) ([3]; S. aureus, Li^+ 172 mM (1205 ppm), Li2CO3): 6 | MIC ratio (MICwithout Li/MICLi) [3, 10]: 2 | MIC ratio (MICwithout Li/MICLi) [3, 11]: 6 | MIC ratio (MICwithout Li/MICLi) [3, 8]: 20 | MIC ([3]; Li^+ 172 mM (1205 ppm), Li2CO3): 150 µM and 30 µg/mL | MIC ([3]; Li^+ 197 mM (1380 ppm), Li2CO3): 450 µM and 90 µg/mL | MIC ([3]; Li^+ 329 mM (2305 ppm), Li2CO3): 150 µM and 30 µg/mL | MIC ([3]; Li^+ 423 mM (2964 ppm), Li2CO3): 50 µM and 9 µg/mL | MIC ([3]; no Li^+): 900 µM and 180 µg/mL | MIC ratio (MICwithout Li/MICLi) ([4]; Li^+ 172 mM (1205 ppm), Li2CO3): >3.75 | MIC ratio (MICwithout Li/MICLi) ([4]; Li^+ 197 mM (1380 ppm), Li2CO3): 3 | MIC ([4]; ATCC11229, E. coli, Li^+ 172 mM (1205 ppm), Li2CO3, read-out: MIC active/aequeous): 120 µM and 24 µg/mL | MIC ([4]; ATCC11229, E. coli, Li^+ 197 mM (1380 ppm), Li2CO3, read-out: MIC active/aequeous): 180 µM and 35.4 µg/mL | MIC ([4]; ATCC11229, E. coli, no Li^+, read-out: MIC active/aequeous): 530 µM and 106 µg/mL

C=O [Formaldehyde]
MIC ratio (MICwithout Li/MICLi) [3]: >10 | MIC ratio (MICwithout Li/MICLi) ([4]; Li^+ 197 mM (1380 ppm), Li2CO3): >2 | MIC [4, 6]: 590 µM and 17.7 µg/mL | MIC [4, 7]: > 1180 µM and > 35.4 µg/mL | MIC ([1]; Li^+ 197 mM (1380 ppm), Li2CO3): 11800 µM and 354 µg/mL | MIC ([1]; no Li^+): > 35400 µM and > 1060 µg/mL | MIC ratio (MICwithout Li/MICLi) ([1]; Li^+ 197 mM (1380 ppm), Li2CO3): >3

O=CCCCC=O [Glutaraldehyde]
MIC ratio (MICwithout Li/MICLi) [3, 10]: >10 | MIC ([3]; Li^+ 197 mM (1380 ppm), Li2CO3): 40 µM and 3.54 µg/mL | MIC ([3]; no Li^+): > 350 µM and > 35.4 µg/mL

CCCCCCCCCCCCN=C(N)N.Cl [Guanidinedodecyl monochloride]
MIC ratio (MICwithout Li/MICLi) ([4]; Li^+ 197 mM (1380 ppm), Li2CO3): >2.4

O=S(=O)(C(Cl)(Cl)Cl)C(Cl)(Cl)Cl [Hexachlorodimethyl sulfone]
MIC ratio (MICwithout Li/MICLi) [3, 11]: 1.33 | MIC ratio (MICwithout Li/MICLi) ([4]; Li^+ 197 mM (1380 ppm), Li2CO3): 1.67

[Li+] [Li^+]
bacterial count ([3]; no CMIT/MIT, 197 mM Li^+ (Li2CO3) alone): ≥1000 cfu/plate | bacterial count ([3]; no Sodium pyrithione, 96 mM Li^+ (lithium citrate) alone): ≥1000 cfu/plate | antimicrobial effect of lithium ions provided alone ([3]; lithium ions via Li2CO3, no biocide): no antimicrobial effect | antimicrobial effect of lithium ions provided alone ([3]; lithium ions via lithium citrate, no biocide): no antimicrobial effect | bacterial count ([4]; no 4-chloro-3-methylphenol, 197 mM Li^+ (Li2CO3) alone): ≥100 cfu/plate | antimicrobial effect of lithium ions provided alone ([4]; E. coli strain, lithium ions via Li2CO3, no biocide): no antimicrobial effect | antimicrobial effect of lithium ions provided alone ([1]; rOmy AK strain, lithium ions via Li2CO3, no biocide): no antimicrobial effect | bacterial count ([1]; rOmy AK, no MIT, 329 mM Li^+ (Li2CO3) alone): ≥1000 cfu/plate

N#CSCSC#N [Methylene bis(thiocyanate)]
MIC ratio (MICwithout Li/MICLi) [3, 11]: 4.04

[Na+].[O-][n+]1ccccc1[S-] [Sodium pyrithione]
MIC ratio (MICwithout Li/MICLi) ([4]; Li^+ 197 mM (1380 ppm), Li2CO3): 3

Polyethoxyethoxyethylguanidinium hexachloride
MIC ratio (MICwithout Li/MICLi) ([4]; Li^+ 197 mM (1380 ppm), Li2CO3): >1.33 | MIC ratio (MICwithout Li/MICLi) ([4]; Li^+ 423 mM (2964 ppm), Li2CO3): >8
